# In patent US20230279132A1, “TREATMENT OF B CELL MALIGNANCIES” (NOVARTIS AG, priority 2020, published 2023):
# Like-named read-outs stand apart in the source and are kept apart here.
# Key:
# [1] = tested on: DLBCL; details: cited from earlier work
# [2] = tested on: DLBCL cell line SUDHL4; assay: in vivo DLBCL model: SUDHL4 implanted subcutaneously into SCID mice; details: 5 mg/kg or 50 mg/kg VAY736 intravenously weekly
# Source text: Vehicle and rituximab were used as controls.
# [3] = tested on: BAFF; assay: Phase Ib study CVAY736Y2102: free BAFF; type: in vivo, human; details: VAY736 in combination with ibrutinib
# [4] = tested on: SUDHL4 cells; assay: in vitro ADCC assay (Calcein AM-labeled SUDHL4 cells) with PBMC, pNK or NK3.3 effector cells; type: cell-based; details: for improvement in VAY736-induced ADCC with lenalidomide: 72 hr lenalidomide treatment
# Experimental: NK3.3 cells were collected, washed 1×, and incubated in starvation media with or without 3 uM lenalidomide. Cells were incubated for 48 hrs or 72 hrs, collected, spun down, and resuspended in assay buffer. 100 μl of NK3.3 cells at the designated E:T ratios were transferred to a 96 well plate with SUDHL4 cells and antibodies. The co-culture was incubated for 2 hrs.
# (§1) Frozen PBMC were thawed, or fresh PBMCs were isolated. If T cells were depleted, PBMC were used for a positive depletion of CD3 using CD3 beads (Miltenyi #130-050-101). Cells were washed 1×, and incubated in unstimulated media (phenol red free/glutamax/hepes/anti-penicillin anti-streptomycin/FBS) with or without 3 μM, 1 μM or 10 μM Lenalidomide. Cells were incubated for 24 hrs or 72 hrs. The supernatant was taken and frozen for IL2 analysis. In one study, for the 72 hr culture, 100 pg/ml IL2 was added to the culture for the last 24 hrs. Primary NK cells were isolated the day of the co-culture setup. 100 μl of PBMC or pNK cells at the designated E:T ratios were transferred to the 96 well plate with the SUDHL4 cells and antibodies. The co-culture was incubated for 3 hrs or 4 hrs.
# A total of 10e6 or 4e6 SUDHL4 cells were incubated with Calcein AM for 60 minutes. Cells were then washed 2× with 30 ml of media. Cells were counted, and resuspended to 0.15 e6/ml or 0.2 e6/ml, and in one study 40 ng/ml of IL2 was added. A total of 50 μl cells were then transferred to a 96 well plate. […] Effector cells were then added to the 96 well plate. The plate was then spun in a centrifuge without the brake at 200×g for 4 min, and the co-culture was incubated for 2 hrs, 3 hrs or 4 hrs. The plate was then spun without the brake at 1500 RPM for 4 min. 100 μl of the supernatant was moved to black 96 well plates (Corning, #3904) and fluorescence was recorded with a PerkinElmer Envision plate reader.
# [5] = tested on: B cells; assay: three repeated dose toxicity studies; type: in vivo, cynomolgus monkeys
# Experimental: (§2) A rising single i.v. dose range finding (DRF), toxicity and TK/PD study and three repeated dose toxicity studies were performed with ianalumab in cynomolgus monkeys. B-cell levels were evaluated in the studies.
# [6] = molecular target: T1, BAFF-R (Homo sapiens, UniProt Q96RJ3); assay: Phase Ib study CVAY736Y2102: tissue receptor occupancy; type: in vivo; details: VAY736 doses of 3 mg/kg or above, in combination with ibrutinib
# T1 construct: from tissue
# [7] = tested on: B cells; type: in vivo, cynomolgus monkeys
# Experimental: as §2
# [8] = tested on: mature B cell; assay: repeat dose toxicity study in mice: healthy B-cell levels; type: in vivo, CD-1 mice
# Experimental: CD-1 mice were administered 0 mg/kg or 100 mg/kg of ianalumab by intravenous administration weekly for 13 weeks, followed by an 11 week recovery period.
# [9] = tested on: MCL; details: cited from earlier work; for response rates: relapsed MCL, targeted therapies
# [10] = tested on: IL2; assay: IL2 production in PBMC treated with lenalidomide; type: cell-based; details: 72 hr lenalidomide, PBMC with and without CD3+ cells (FIG. 8)
# Experimental: as §1
molecule,measurement,setting,value
brentuximab vedotin,ORR,[1]; CD30+ relapsed DLBCL,44%
"VAY736: non-fucosylated human IgG1 kappa anti-BAFFR antibody with enhanced ADCC; heavy chain SEQ ID NO: 9, light chain SEQ ID NO: 10",tumor growth compared to the vehicle control (tumor volume measurements over time),[2],significantly slowed tumor growth
same,free BAFF,[3],accumulated to steady state with no dose relationship
same,ADCC in the presence of VAY736,"[4]; effector cells PBMC, pNK cells, NK3.3 cell line",potent ADCC
same,"VAY736-dependent specific lysis of SUDHL4 cells, dose dependence",[4]; various effector cells,dose-dependent
same,B cell depletion,[5],B cell depletion was observed at all dose levels
same,tissue receptor occupancy,[6],> 99%
same,tolerability,"[7]; cynomolgus monkey, in vivo",well tolerated
same,dose that induced depletion of B cells,[7]; single i.v. dose,≥ 0.4 mg/kg
same,mature B cell depletion,[8]; 100 mg/kg intravenous weekly for 13 weeks,70-90%
same,B cell levels during the recovery period,[8]; 11 week recovery period after 100 mg/kg weekly for 13 weeks,recovered
polatuzumab vedotin,ORR,[1]; in combination with rituximab and bendamustine,70%
C=CC(=O)N1CCC[C@@H](n2nc(-c3ccc(Oc4ccccc4)cc3)c3c(N)ncnc32)C1 [ibrutinib],treatment-related adverse effects compared to temsirolimus,[9]; Phase III study,fewer treatment-related adverse effects
CC(C)C[C@H](NC(=O)[C@H](Cc1ccccc1)NC(=O)c1cnccn1)B(O)O [bortezomib],response rates,[9],improved response rates
CO[C@H]1C[C@@H]2CC[C@@H](C)[C@@](O)(O2)C(=O)C(=O)N2CCCC[C@H]2C(=O)O[C@H]([C@H](C)C[C@@H]2CC[C@@H](OC(=O)C(C)(CO)CO)[C@H](OC)C2)CC(=O)[C@H](C)/C=C(\C)[C@@H](O)[C@@H](OC)C(=O)[C@H](C)C[C@H](C)/C=C/C=C/C=C/1C [temsirolimus],response rates,[9],improved response rates
Nc1cccc2c1CN(C1CCC(=O)NC1=O)C2=O (stereo not drawn) [lenalidomide],IL2 production in PBMC,[10],IL2 produced by lenalidomide treatment by T cells
same,ADCC with lenalidomide pretreatment,"[4]; NK3.3 effector cells, E:T 20:1 and 7:1, 72 hr and 48 hr pretreatment (FIGS. 5, 6)",Slight increases in ADCC
same,VAY736-induced ADCC with addition of lenalidomide,"[4]; NK3.3 effector cells, more prominent with 72 hr pretreatment at E:T 20:1 (FIG. 2A-2B)",Increases in VAY736-induced ADCC
same,VAY736-induced ADCC with lenalidomide pretreatment,"[4]; PBMC effector cells, 24 hrs pretreatment, E:T 2:1",only showed an enhancement at the highest concentration
same,VAY736-induced ADCC with lenalidomide pretreatment,"[4]; PBMC effector cells, 24 hrs pretreatment, E:T 10:1",enhanced VAY736-induced ADCC
same,VAY736-induced ADCC with lenalidomide pretreatment,"[4]; PBMC effector cells, 24 hrs pretreatment, E:T 20:1",only a slight enhancement
same,improvement in VAY736-induced ADCC with lenalidomide,"[4]; PBMC effector cells, E:T 2:1",evident
same,improvement in VAY736-induced ADCC with lenalidomide,"[4]; PBMC effector cells, E:T 6:1",less pronounced
same,VAY736-induced ADCC with lenalidomide,"[4]; PBMC effector cells, 72 hr, E:T 3:1, largely dose-independent, hampered with IL2 stimulation",increased VAY736-induced ADCC
same,dependence of the ADCC enhancement by lenalidomide on CD3+ T cells,"[4]; PBMC vs CD3+ depleted PBMC, 72 hr",dependent on the presence of CD3+ T cells
same,VAY736-induced ADCC with lenalidomide pretreatment,"[4]; pNK cells isolated from PBMC pretreated 24 hrs, more so with 10:1 and 20:1",enhanced VAY736-induced ADCC
same,VAY736-induced ADCC with lenalidomide pretreatment,"[4]; pNK cells, 72 hr Len pretreatment, E:T 1:1 and 1:3",enhanced VAY736-induced ADCC
same,VAY736-dependent percent specific lysis of SUDHL4 cells on addition of lenalidomide,[4]; various effector cells and treatment conditions,enhanced
same,ORR,"[9]; heavily pre-treated population, Phase II study EMERGE",28%
blinatumomab: bispecific antibody,response rates,[1]; DLBCL,35-50%
